Structures can show the parent of a compound that is named as a salt.
Columns and labels:
[1] = system: NCI-H292 lung cancer cells; assay: FDA drug screening, complete media vs cholesterol-free media with simvastatin (TABLE 2); type: cell-based, human; conditions: for Cholesterol-free media + simvastatin (0.04 μM) / Complete Media: NCI-H292 cells
[2] = system: NCI-H292 lung cancer cells; assay: FDA drug screening, complete media vs cholesterol-free media without statin (TABLE 1); type: cell-based, human
[3] = FDA drug library screen, cholesterol-free media with simvastatin 0.04 μM
[4] = FDA drug library screen, complete media
[5] = complete media minus cholesterol-free media + simvastatin, >0 enhanced anti-cancer activity, about 0 neutral, <0 antagonist
[6] = NCI-H292 cells, cholesterol-free media without statin, FDA drug library screen
[7] = NCI-H292 cells, complete media, FDA drug library screen
[8] = complete vs cholesterol-free media, >0 enhanced anti-cancer activity, about 0 neutral, <0 antagonist
[9] = Complete minus Cholesterol-free, >0 enhanced anti-cancer activity, about 0 neutral, <0 antagonist
[10] = NCI-H292 cells, cholesterol-free media without statin
[11] = drug in cholesterol-free media with simvastatin 0.04 μM
[12] = complete media vs cholesterol-free media + simvastatin (0.04 μM), […]
[13] = complete media vs cholesterol-free media + simvastatin (0.04 μM), >0 enhanced anti-cancer activity, about 0 neutral, <0 antagonist
[14] = Complete minus Cholesterol-free, greater than 0 enhanced anti-cancer activity, about 0 neutral, below 0 antagonist
[15] = NCI-H292 cells, FDA drug library screen, cholesterol-free media without statin
[16] = Complete minus Cholesterol-free, […]
[17] = NCI-H292 cells, FDA drug library screen, complete media
[18] = FDA library drug in complete media

SMILES: CCOc1cc([C@@H](CS(C)(=O)=O)N2C(=O)c3cccc(NC(C)=O)c3C2=O)ccc1OC [Apremilast]
- Cholesterol-free media + simvastatin (0.04 μM) [1, 3]: 1.396
- Complete Media [1, 4]: 1.812
- Difference [1, 5]: 0.42
- Cholesterol-free [2, 6]: 1.127
- Complete [2, 7]: 1.856
- Difference [2, 8]: 0.73

SMILES: C[C@@H](O[C@H]1OCCN(Cc2n[nH]c(=O)[nH]2)[C@H]1c1ccc(F)cc1)c1cc(C(F)(F)F)cc(C(F)(F)F)c1 [Aprepitant]
- Cholesterol-free media + simvastatin (0.04 μM) ([1]; cholesterol-free media with simvastatin 0.04 μM, cell growth value in FDA drug screen): 1.036
- Complete Media ([1]; complete media, cell growth value in FDA drug screen): 1.144
- Difference [1, 5]: 0.11
- Difference [2, 9]: −0.20
- Cholesterol-free [2, 10]: 0.998
- Complete ([2]; NCI-H292 cells, complete media): 0.7992

SMILES: C=CCC(C(=O)NC(N)=O)C(C)C (stereo not shown) [Apronal]
- Cholesterol-free media + simvastatin (0.04 μM) [1, 11]: 1.688
- Complete Media ([1]; drug in complete media): 1.479
- Difference [1, 12]: −0.21
- Cholesterol-free [2, 6]: 1.287
- Complete [2, 7]: 1.458
- Difference ([2]; complete vs cholesterol-free media, […]): 0.17

SMILES: CC1CNc2c(cccc2S(=O)(=O)N[C@@H](CCCNC(=N)N)C(=O)N2CC[C@@H](C)C[C@@H]2C(=O)O)C1 (stereo partly shown) [Argatroban (monohydrate)]
- Cholesterol-free media + simvastatin (0.04 μM) [1, 11]: 1.179
- Complete Media ([1]; drug in complete media): 0.9367
- Difference [1, 13]: −0.24
- Difference [2, 14]: −0.08
- Cholesterol-free [2, 15]: 1.232

SMILES: CCCCCCCCCCCC(=O)OCN1C(=O)CCc2ccc(OCCCCN3CCN(c4cccc(Cl)c4Cl)CC3)cc21 [Aripiprazole Lauroxil]
- Cholesterol-free media + simvastatin (0.04 μM) ([1]; cholesterol-free media with simvastatin 0.04 μM, FDA drug library screen (TABLE 2)): 0.9724
- Complete Media ([1]; complete media, FDA drug library screen (TABLE 2)): 0.9697
- Difference ([1]; complete media minus cholesterol-free media + simvastatin (0.04 μM), […]): 0.00
- Difference [2, 16]: −0.06
- Cholesterol-free [2, 6]: 0.9297
- Complete [2, 7]: 0.8705

SMILES: O=C1CCc2ccc(OCCCCN3CCN(c4cccc(Cl)c4Cl)CC3)cc2N1 [Aripiprazole]
- Cholesterol-free media + simvastatin (0.04 μM) [1, 11]: 1.264
- Complete Media ([1]; drug in complete media): 1.028
- Difference [1, 13]: −0.24
- Difference [2, 14]: −0.16
- Cholesterol-free [2, 15]: 0.9968
- Complete [2, 17]: 0.833

SMILES: COc1cccc2c1cc([N+](=O)[O-])c1c(C(=O)O)cc3c(c12)OCO3 [Aristolochic acid A]
- Cholesterol-free media + simvastatin (0.04 μM) ([1]; FDA library drug in cholesterol-free media with simvastatin 0.04 μM): 0.923
- Complete Media [1, 18]: 0.5762
- Difference [1, 12]: −0.35
- Difference [2, 16]: −0.56
- Cholesterol-free ([2]; NCI-H292 cells in cholesterol-free media without statin): 1.282
- Complete ([2]; NCI-H292 cells in complete media): 0.7241

SMILES: CC(C)(C)NCC(O)CSc1nc(-c2ccc(C(N)=O)s2)cs1 (stereo not shown) [Arotinolol]
- Cholesterol-free media + simvastatin (0.04 μM) [1, 3]: 1.158
- Complete Media [1, 4]: 1.017
- Difference [1, 13]: −0.14
- Difference [2, 14]: −0.18
- Cholesterol-free [2, 15]: 1.165
- Complete [2, 17]: 0.9888

SMILES: CO[C@H]1O[C@@H]2O[C@@]3(C)CC[C@H]4[C@H](C)CC[C@@H]([C@H]1C)[C@@]24OO3 [Artemether]
- Cholesterol-free media + simvastatin (0.04 μM) [1, 3]: 0.6524
- Complete Media [1, 4]: 0.841
- Difference [1, 5]: 0.19
- Difference [2, 9]: −0.26
- Cholesterol-free [2, 10]: 1.059
- Complete ([2]; NCI-H292 cells, complete media): 0.7961

SMILES: C[C@@H]1CC[C@H]2[C@@H](C)C(=O)O[C@@H]3O[C@@]4(C)CC[C@@H]1[C@]32OO4 [Artemisinin]
- Complete Media [1, 18]: 0.8603
- Difference [1, 13]: −0.76
- Difference [2, 9]: −0.06
- Cholesterol-free [2, 6]: 0.8489
- Complete [2, 7]: 0.7892

SMILES: CCO[C@H]1O[C@@H]2O[C@@]3(C)CC[C@H]4[C@H](C)CC[C@@H]([C@H]1C)[C@@]24OO3 [Artemotil]
- Cholesterol-free media + simvastatin (0.04 μM) [1, 3]: 0.9606
- Complete Media [1, 4]: 0.8046
- Difference [1, 13]: −0.16
- Difference [2, 9]: −0.21
- Cholesterol-free [2, 10]: 0.7572
- Complete ([2]; NCI-H292 cells, complete media): 0.5514

SMILES: CC(C)(N)CNC(=O)C[C@H]1CC[C@]2(CC1)OO[C@]1(O2)C2CC3CC(C2)CC1C3 [Arterolane]
- Cholesterol-free media + simvastatin (0.04 μM) [1, 3]: 1.129
- Complete Media [1, 4]: 1.314
- Difference [1, 5]: 0.19
- Difference [2, 14]: −0.17
- Cholesterol-free [2, 15]: 1.167
- Complete [2, 17]: 0.9934

SMILES: C[C@H]1[C@H](OC(=O)CCC(=O)O)O[C@@H]2O[C@@]3(C)CC[C@H]4[C@H](C)CC[C@@H]1[C@@]24OO3 [Artesunate]
- Cholesterol-free media + simvastatin (0.04 μM) [1, 3]: 1.06
- Complete Media [1, 4]: 0.9407
- Difference [1, 13]: −0.12
- Cholesterol-free [2, 10]: 0.9732
- Complete ([2]; NCI-H292 cells, complete media): 0.63
- Difference ([2]; complete vs cholesterol-free media, greater than 0 enhanced anti-cancer activity, about 0 neutral, below 0 antagonists): −0.34

SMILES: CCCNC(C)C(=O)Nc1c(C)csc1C(=O)OC (stereo not shown) [Articaine (hydrochloride)]
- Cholesterol-free media + simvastatin (0.04 μM) [1, 3]: 0.9336
- Complete Media [1, 4]: 0.8247
- Difference [1, 13]: −0.11
- Cholesterol-free [2, 6]: 1.045
- Complete [2, 7]: 1.285
- Difference [2, 8]: 0.24
